For one data set, the target named is Substance-P receptor (Cavia porcellus, UniProt P30547). The data set can be described thus: Binding affinity for NK1 receptor in guinea pig lung was determined by using [125 I]-Bolton Hunter labeled SP.
A short description of data set [1]: The solubility in a […] phosphate buffer solution at pH 7.4. It is filed as ADME.
Data set [2] in a line: The pKa2 value for the compound was determined by titrating in an aqueous solution (ISA). The data set is classed as physicochemical. The conditions noted are these: read-out: pKa2.
Data set [3] can be described thus: Partition coefficient (logP). It is filed as physicochemical. The note with it: octanol/water.
A short description of data set [4]: The pKa1 value for the compound was determined by titrating in an aqueous solution (ISA). The data set is classed as physicochemical. The conditions noted are these: read-out: pKa1.
The species named for a further data set is Rattus norvegicus. The data set can be described thus: The relative metabolic stability at 10 uM concentration was determined using rat liver […] fortified with NADPH. The data set is classed as functional.
Data set [5] can be described thus: Partition coefficient (logD). The data set is classed as physicochemical. The conditions noted are these: octanol/water.
The next data set concerns Cavia porcellus. Description: The perorally administered compound was evaluated for percentage inhibition of capsaicin induced respiratory effects at 10 mg / kg concentration in guinea pig. The note with it: po.
Data set [6] is described as follows: The relative permeability was measured from transport studies using polycarbonate membranes and Dulbecco's modified eagle medium with 10% fetal bovine serum. The data set is classed as ADME.
A short description of data set [7]: The pKa3 value for the compound was determined by titrating in an aqueous solution (ISA). It is filed as physicochemical. The note with it: read-out: pKa3.

Substance-P receptor, sequence (P30547 whole entry): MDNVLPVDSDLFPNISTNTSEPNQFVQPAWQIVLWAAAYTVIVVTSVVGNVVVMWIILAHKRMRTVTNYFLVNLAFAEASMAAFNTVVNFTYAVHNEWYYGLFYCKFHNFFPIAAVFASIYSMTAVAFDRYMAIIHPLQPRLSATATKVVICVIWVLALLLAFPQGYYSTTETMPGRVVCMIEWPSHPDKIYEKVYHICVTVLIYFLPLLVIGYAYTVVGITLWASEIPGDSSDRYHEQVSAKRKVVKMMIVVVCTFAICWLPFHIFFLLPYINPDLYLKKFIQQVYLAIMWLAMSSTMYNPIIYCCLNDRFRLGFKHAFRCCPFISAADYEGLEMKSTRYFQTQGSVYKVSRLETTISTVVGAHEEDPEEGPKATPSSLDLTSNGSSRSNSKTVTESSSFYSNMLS

As usually defined, the IC50 is the concentration needed to halve the response being measured. Take `COc1cc(C(=O)N2CCC(CCN3CCC(C(N)=O)(c4ccccc4)CC3)(c3cccnc3)C2)cc(OC)c1OC` (configuration not stated): the IC50 at Substance-P receptor worked out at 567 nM.
The same measure, in the same setting: then `COc1cc(C(=O)N2CCC(CCN3CCC(C(N)=O)(c4cccnc4)CC3)(c3ccc(Cl)c(Cl)c3)C2)cc(OC)c1OC` (configuration not stated), with 8.14 nM.
Usually solubility stands for how much of the substance goes into solution per volume. Lower therefore signals little dissolved substance. Usually logP stands for the decadic logarithm of the partition coefficient of the neutral form, usually between octanol and water. The logD is lipophilicity at a set pH, counting ionised and neutral species. One may read the inhibition in vivo as the drop in the measured response relative to a control, in per cent. Read a low inhibition in vivo as a response near the control. As for `COc1cc(C(=O)N2CC[C@](CCN3CCC(C(N)=O)(c4ccncc4)CC3)(c3ccc(Cl)c(Cl)c3)C2)cc(OC)c1OC.Cl`, the solubility in data set [1] is 408 µg/mL. In addition, the figures for the pKa in [2] and in [4] were 4.14 and 7.53, respectively. Further, in data set [3], the logP is recorded as 1.9. This molecule gave a Relative metabolic stability in the data set filed under Rattus norvegicus of 0.78. The logD in data set [5] came out at 2.64. The molecule further had an inhibition in vivo at 10 mg/kg in the data set on Cavia porcellus of 20%. The molecule also had a Relative permiability in [6] of 0.1. The molecule also yielded an IC50 on Substance-P receptor of 2.49 nM.
Molecule `COc1cc(C(=O)N2CCC(CCN3CCC(C(N)=O)(c4ccccc4)CC3)(c3ccc(F)cc3)C2)cc(OC)c1OC` (configuration not stated) showed an IC50 at Substance-P receptor of 23.3 nM.
The molecule `COc1cc(C(=O)N2CC[C@](CCN3CCC(C(=O)N4CCOCC4)(c4ccccc4)CC3)(c3ccc(Cl)c(Cl)c3)C2)cc(OC)c1OC.Cl` came in with a solubility in data set [1] of 25 µg/mL. In data set [3] (read-out: logP), the logP came to 4.3. The pKa in [4] is 7.51. This molecule showed a Relative metabolic stability in the data set filed under Rattus norvegicus of 0.77. Also, in data set [5] (read-out: logD), the logD came out at 3.02. The molecule also gave an inhibition in vivo at 10 mg/kg with Cavia porcellus of 39%. This molecule also showed a Relative permiability in data set [6] of 3.7. At Substance-P receptor, this molecule gave an IC50 of 4.34 nM.
`COc1cc(C(=O)N2CCC(CCN3CCC(C(N)=O)(c4ccncc4)CC3)(c3ccc(Cl)c(Cl)c3)C2)cc(OC)c1OC` (configuration not stated) gave an IC50 at Substance-P receptor of 4.88 nM.
The same measure, in the same setting: to `COc1cc(C(=O)N2CCC(CCN3CCC(C(=O)N4CCCCC4)(c4ccccc4)CC3)(c3ccc(Cl)c(Cl)c3)C2)cc(OC)c1OC` (configuration not stated) belongs 23.2 nM; to `COc1cc(C(=O)N2CCC(CCN3CCC(C(N)=O)(c4ccccc4)CC3)(c3cccc(Cl)c3)C2)cc(OC)c1OC` (configuration not stated), 10.7 nM; to `COc1cc(C(=O)N2CCC(CCN3CCC(C(=O)N4CCN(C)CC4)(c4ccccc4)CC3)(c3ccc(Cl)c(Cl)c3)C2)cc(OC)c1OC` (configuration not stated), 4.51 nM.
Regarding `COc1cc(C(=O)N2CC[C@](CCN3CCC(C(=O)N4CCN(C)CC4)(c4ccccc4)CC3)(c3ccc(Cl)c(Cl)c3)C2)cc(OC)c1OC.Cl`, the solubility in data set [1] is 426 µg/mL. Also, the results for the pKa in data set [2] and in data set [4] were 6.86 and 7.92, respectively. Moreover, the logP in data set [3] (read-out: logP) is 4.7. The molecule also came in with a Relative metabolic stability in the data set filed under Rattus norvegicus of 0.43. In addition, in data set [5] (read-out: logD), the logD was determined as 3.71. The inhibition in vivo at 10 mg/kg with Cavia porcellus was 31%. Moreover, the Relative permiability in data set [6] amounted to 2.1. This molecule displayed an IC50 on Substance-P receptor of 3.94 nM.
At Substance-P receptor, `COc1cc(C(=O)N2CCC(CCN3CCC(C(N)=O)(c4ccccc4)CC3)(c3ccc(F)c(F)c3)C2)cc(OC)c1OC` (configuration not stated) showed an IC50 of 9.76 nM. This lies in the single-digit nanomolar range.
In turn, `COc1cc(C(=O)N2CCC(CCN3CCC(C(=O)NCCN4CCOCC4)(c4ccccc4)CC3)(c3ccc(Cl)c(Cl)c3)C2)cc(OC)c1OC` (configuration not stated) showed an IC50 at Substance-P receptor of 7.53 nM.
Same read-out and setting: then `COc1cc(C(=O)N2CCC(CCN3CCC(C(N)=O)(c4ccccc4)CC3)(c3ccc(Cl)cc3)C2)cc(OC)c1OC` (configuration not stated), with 8.62 nM.
For `COc1cc(C(=O)N2CC[C@](CCN3CCC(C(=O)N4CCN(C)CC4)(c4cccnc4)CC3)(c3ccc(Cl)c(Cl)c3)C2)cc(OC)c1OC.Cl`, the concentration in solution in data set [1] (solubility) came to 1200 µg/mL. Also, the values for the pKa in data set [2], in data set [4] and in data set [7] were 7.76, 11.4 and 6.71, respectively. In addition, in data set [3] (read-out: logP), the logP is 3.2. The logD in data set [5] (read-out: logD) amounted to 2.41. In the data set on Cavia porcellus, this molecule had an inhibition in vivo at 10 mg/kg of 13%. In addition, in [6], the Relative permiability worked out at 1.2. This molecule also showed an IC50 on Substance-P receptor of 2.46 nM.
Molecule `COc1cc(C(=O)N2CCC(CCN3CCC(C(N)=O)(c4ccccc4)CC3)(c3ccc(Cl)c(Cl)c3)C2)cc(OC)c1OC` (configuration not stated) displayed a 50% inhibitory concentration (IC50) at Substance-P receptor of 5.88 nM.
In data set [1], `COc1cc(C(=O)N2CC[C@](CCN3CCC(C(N)=O)(c4ccccc4)CC3)(c3ccc(Cl)c(Cl)c3)C2)cc(OC)c1OC.Cl` showed a solubility of 70 µg/mL. The logP in data set [3] is 3.4. The pKa in data set [4] worked out at 7.64. This molecule also displayed a Relative metabolic stability in the data set listed under Rattus norvegicus of 1. The logD in [5] (read-out: logD) was 3.02. The same molecule yielded an inhibition in vivo at 10 mg/kg in the data set on Cavia porcellus of 60%. Also, in data set [6], the Relative permiability is reported as 1. The molecule further returned an IC50 at Substance-P receptor of 3.11 nM.
Take `COc1ccc(C2(CCN3CCC(C(N)=O)(c4ccccc4)CC3)CCN(C(=O)c3cc(OC)c(OC)c(OC)c3)C2)cc1OC` (configuration not stated): the IC50 on Substance-P receptor worked out at 36.7 nM.
Same read-out and setting: to `COc1cc(C(=O)N2CCC(CCN3CCC(C(=O)N4CCOCC4)(c4ccccc4)CC3)(c3ccc(Cl)c(Cl)c3)C2)cc(OC)c1OC` (configuration not stated) belongs 8.72 nM.
For the molecule `COc1cc(C(=O)N2CC[C@](CCN3CCC(C(N)=O)(c4cccnc4)CC3)(c3ccc(Cl)c(Cl)c3)C2)cc(OC)c1OC.Cl`, the solubility in data set [1] came to 548 µg/mL. Moreover, the pKa in data set [2] stood at 3.97; in data set [4], 7.6. Also, the logP in data set [3] is 1.9. This molecule also gave a Relative metabolic stability in the data set listed under Rattus norvegicus of 0.72. In addition, the log distribution coefficient (logD) in data set [5] was determined as 2.59. For the same molecule, 10 mg/kg produced 38% inhibition in vivo with Cavia porcellus. Also, in data set [6], the Relative permiability is reported as 0.1. The molecule also gave an IC50 at Substance-P receptor of 4.01 nM.
At Substance-P receptor, `COc1cccc(C2(C(N)=O)CCN(CCC3(c4ccc(Cl)c(Cl)c4)CCN(C(=O)c4cc(OC)c(OC)c(OC)c4)C3)CC2)c1` (configuration not stated) registered an IC50 of 8.49 nM.
Still for that read-out and setting: to `COc1cc(C(=O)N2CCC(CCN3CCC(C(N)=O)(c4ccc(F)cc4)CC3)(c3ccc(Cl)c(Cl)c3)C2)cc(OC)c1OC` (configuration not stated) belongs 13.5 nM.

(Values after ChEMBL document CHEMBL1130548, “Synthesis and structure-activity relationships for a series of substituted pyrrolidine NK1/NK2 receptor antagonists” (Bioorg Med Chem Lett, 1997).)
